As usually defined, the IC50 is the concentration needed to halve the response being measured.

Structures can show the parent of a compound that is named as a salt.

Sequence of human Mnk2a (Q9HBH9 whole entry): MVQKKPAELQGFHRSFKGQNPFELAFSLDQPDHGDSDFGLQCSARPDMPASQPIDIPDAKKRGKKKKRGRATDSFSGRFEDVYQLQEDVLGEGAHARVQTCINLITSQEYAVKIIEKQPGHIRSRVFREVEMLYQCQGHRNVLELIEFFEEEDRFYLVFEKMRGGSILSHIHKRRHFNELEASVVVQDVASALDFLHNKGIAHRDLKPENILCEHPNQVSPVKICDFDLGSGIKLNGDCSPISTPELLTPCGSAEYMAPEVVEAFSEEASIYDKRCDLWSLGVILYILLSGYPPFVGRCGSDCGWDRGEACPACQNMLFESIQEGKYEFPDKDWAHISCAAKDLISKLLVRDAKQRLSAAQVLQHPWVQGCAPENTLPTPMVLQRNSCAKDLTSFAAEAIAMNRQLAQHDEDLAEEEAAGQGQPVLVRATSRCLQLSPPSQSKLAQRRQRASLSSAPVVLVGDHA

The target in the assay is human Mnk2a (Homo sapiens (Human), UniProt Q9HBH9). Briefly: Mnk2a in vitro kinase assay (indirect competitive fluorescence polarization). The class given is biochemical. As to conditions: pre-activated GST-Mnk2a 2.5 nM, 20 μM ATP, 30 μM substrate peptide; read-out: MNK2 IC50. Summed up:
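GST-tagged human Mnk2a expressed in E. coli and glutathione-purified, then activated at 2.5 μM with 150 nM pre-activated NHis-ERK2 and 50 μM ATP in HEPES/KOH pH 7.4, MgCl2, DTT, Brij 78 for 45 min at 30 °C. Phospho-peptide product read by indirect competitive fluorescence polarization against fluorophore-labelled phospho-peptide bound to phospho-specific antibody.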
Take `COC(=O)c1sc2ncnc(Nc3ccc(F)cc3OC(C)CN)c2c1C` (stereo not shown) [Compound 2-1, Methyl 4-(2-(1-aminopropan-2-yloxy)-4-fluorophenylamino)-5-methyl-thieno[2,3-d]pyrimidine-6-carboxylate trifluoroacetate]: the IC50 came out at 70 nM.

For the compound `COC(=O)c1sc2ncnc(Nc3ccc(F)cc3OC(CN)CN)c2c1C` [Compound 18-2, Methyl 4-(2-(1,3-diaminopropan-2-yloxy)-4-fluorophenylamino)-5-methylthieno[2,3-d]pyrimidine-6-carboxylate bis(trifluoroacetate)], the IC50 stood at 691 nM.

For `Cc1c(C(=O)NC2CCN(C)CC2)sc2ncnc(Nc3ccc(F)cc3OC(C)CC(F)(F)F)c12` (stereo not shown) [Compound 32-41], the half-maximal inhibitory concentration (IC50) worked out at 25 nM.

On to `Cc1c(C(=O)NCCCN(C)C)sc2ncnc(Nc3ccc(F)cc3OCC(F)F)c12` [Compound 32-19], for which the IC50 came out at 23 nM.

As to `CCNC(=O)C(C)Oc1cc(F)ccc1Nc1ncnc2sc(C(=O)NC)c(C)c12` (stereo not shown) [Compound 31-6, 4-(2-(1-(ethylamino)-1-oxo-propan-2-yloxy)-4-fluorophenyl-amino)-N,5-dimethyl-thieno[2,3-d]pyrimidine-6-carbox-amide], the half-inhibitory concentration (IC50) worked out at 13 nM.

`Cc1c(C(=O)O)sc2ncnc(Nc3ccc(F)cc3OC(C)CN)c12` (stereo not shown) [Compound 7, 4-(2-(1-Aminopropan-2-yloxy)-4-fluorophenylamino)-5-methyl-thieno[2,3-d]pyrimidine-6-carboxylic acid trifluoroacetate]: the half-inhibitory concentration (IC50) is 14 nM.

Consider `Cc1c(C(=O)NCCCN(C)C)sc2ncnc(Nc3ccc(F)cc3OCC3CC3(F)F)c12` (stereo not shown) [Compound 32-22], for which the IC50 turned out to be 36 nM.

For the compound `Cc1c(C(=O)NCCO)sc2ncnc(Nc3ccc(F)cc3OCCO)c12` [Compound 32-33], the half-maximal inhibitory concentration (IC50) was found to be 65 nM.

Take `Cc1c(C(=O)NCCO)sc2ncnc(Nc3ccc(F)cc3OCC3(CC#N)CC3)c12` [Compound 32-14]: the IC50 turned out to be 65 nM.

Take `Cc1c(C(=O)O)sc2ncnc(Nc3ccc(F)cc3OCC(F)F)c12` [Compound 32-4]: the IC50 amounted to 13 nM.

On to `CCNC(=O)C(C)Oc1cc(F)ccc1Nc1ncnc2sc(C(=O)NCCO)c(C)c12` (stereo not shown) [Compound 41], for which the IC50 was determined as 31 nM.

Consider `Cc1c(C(=O)NCCO)sc2ncnc(Nc3ccc(F)cc3OC(C)CF)c12` (stereo not shown) [Compound 32-27], for which the IC50 amounted to 7 nM.

On to `Cc1c(C(=O)NCCCN2CCOCC2)sc2ncnc(Nc3cccnc3OC(C)C)c12` [Compound 36-4], for which the IC50 is 44 nM.

As for `Cc1c(C(N)=O)sc2ncnc(Nc3ccc(F)cc3OC(CO)CO)c12` [Compound 32-30], the 50% inhibitory concentration (IC50) came out at 56 nM.

Turning to `Cc1c(C(=O)O)sc2ncnc(Nc3ccc(F)cc3OCC(C)F)c12` (stereo not shown) [Compound 32-12], the IC50 turned out to be 12 nM.

As to `Cc1c(C(=O)NCCCN(C)C)sc2ncnc(Nc3ccc(F)cc3OC(C)C#N)c12` (stereo not shown) [Compound 63], the 50% inhibitory concentration (IC50) came to 17 nM.

Regarding `Cc1c(C(=O)O)sc2ncnc(Nc3cccnc3OCC(C)F)c12` (stereo not shown) [Compound 27-2, 4-(2-(2-Fluoropropoxy)pyridin-3-ylamino)-5-methyl-thieno[2,3-d]pyrimidine-6-carboxylic acid], the IC50 came out at 33 nM.

On to `Cc1c(C(=O)NC2CCN(C)CC2)sc2ncnc(Nc3cccnc3OC(C)C)c12` [Compound 36-10, 4-(2-Isopropoxypyridin-3ylamino)-5-methyl-N-(1-methylpiperidin-4-yl)thieno[2,3-d]pyrimidine-6-carboxamide], for which the IC50 was 32 nM.

`Cc1c(C(=O)NCCCN(C)C)sc2ncnc(Nc3cccnc3OC(C)C)c12` [Compound 36, N-(3-(Dimethylamino)propyl)-4-(2-isopropoxypyridin-3-ylamino)-5-methyl-thieno[2,3-d]pyrimidine-6-carboxamide]: the IC50 stood at 29 nM.

Consider `Cc1c(C(=O)O)sc2ncnc(Nc3cccnc3OC(C)CCNS(C)(=O)=O)c12` (stereo not shown) [Compound 44, 4-[2-(3-Methanesulfonylamino-1-methyl-propoxy)-pyridin-3-ylamino]-5-methyl-thieno[2,3-d]pyrimidine-6-carboxylic acid], for which the IC50 worked out at 24 nM.

On to `Cc1c(C(=O)NCCO)sc2ncnc(Nc3ccc(C#N)cc3OC(CF)CF)c12` [Compound 51, 4-(4-Cyano-2-(2-fluoro-1-fluoromethyl-ethoxy)-phenylamino]-5-methyl-thieno[2,3-d]pyrimidine-6-carboxylic acid (2-hydroxy-ethyl)-amide], for which the IC50 stood at 10 nM.

As for `Cc1c(C(=O)NCCO)sc2ncnc(Nc3cccnc3OCC(F)F)c12` [Compound 30-4, 4-(2-(2,2-difluoroethoxy)-pyridin-3-ylamino)-N-(2-hydroxy-ethyl)-5-methylthieno [2,3-d]pyrimi-dine-6-carboxamide], the IC50 came to 48 nM.

With `Cc1c(C(=O)NC2CCN(C)CC2)sc2ncnc(Nc3cccnc3OC(C)C(F)(F)F)c12` (stereo not shown) [Compound 21-4, 5-methyl-N-(1-methylpiperidin-4-yl)-4-(2-(1,1,1-trifluoropropan-2-yloxy)pyridin-3-ylamino)thieno[2,3-d]pyrrimidine-6-carboxamide], the IC50 turned out to be 54 nM.

Turning to `Cc1c(C(=O)NCCCN(C)C)sc2ncnc(Nc3cccnc3OC(C)CCNS(C)(=O)=O)c12` (stereo not shown) [Compound 46, 4-[2-(3-Methanesulfonylamino-1-methyl-propoxy)-pyridin-3-ylamino]-5-methyl-thieno[2,3-d]pyrimidine-6-carboxylic acid (3-dimethylamino-propyl)-amide], the half-maximal inhibitory concentration (IC50) amounted to 84 nM.

Consider `Cc1c(C(=O)NCCCN(C)C)sc2ncnc(Nc3cccnc3OC(C)C(F)(F)F)c12` (stereo not shown) [Compound 21-5, N-(3-(dimethyl-amino)propyl)-5-methyl-4-(2-(1,1,1-trifluoro-propan-2-yloxy)-pyridin-3-yl-amino)thieno[2,3-d]pyrimidine-6-carboxamide], for which the 50% inhibitory concentration (IC50) is 42 nM.

For `COC(=O)c1sc2ncnc(Nc3ccc(F)cc3OC(C)C(=O)NCCN)c2c1C` (stereo not shown) [Compound 58, 4-{2-[1-(2-Amino-ethylcarbamoyl)-ethoxyl]-4-fluoro-phenylamino}-5-methyl-thieno[2,3-d]pyrimidine-6-carboxylic acid methyl ester], the IC50 came out at 119 nM.

With `Cc1c(C(=O)NCCCN(C)C)sc2ncnc(Nc3ccc(F)cc3OCCO)c12` [Compound 32-34], the half-inhibitory concentration (IC50) worked out at 69 nM.

Turning to `Cc1c(C(=O)NCCO)sc2ncnc(Nc3cccnc3OC(C)CCN)c12` (stereo not shown) [Compound 42, 4-[2-(3-Amino-1-methyl-propoxy)-3pyridin-3-ylamino]-5-methyl-thieno[2,3-d]pyrimidine-6-carboxylic acid (2-hydroxy-ethyl)-amide], the IC50 was found to be 70 nM.

Take `COC(=O)c1sc2ncnc(Nc3cccnc3OC(C)CN)c2c1C` (stereo not shown) [Compound 11-2, Methyl 4-(2-(1-aminopropan-2yloxy)-pyridin-3-ylamino)-5-methyl-thieno[2,3-d]pyrimidine-6-carboxylate hydrochloride]: the IC50 is 418 nM.

Turning to `Cc1c(C(=O)O)sc2ncnc(Nc3ccc(F)cc3OC(C)CF)c12` (stereo not shown) [Compound 32.7], the IC50 turned out to be 5 nM.

Turning to `COCC(CF)Oc1cc(F)ccc1Nc1ncnc2sc(C(=O)NCCO)c(C)c12` (stereo not shown) [Compound 32-23], the IC50 came to 26 nM.

`COC(=O)c1sc2ncnc(Nc3ccc(F)cc3OC(C)CN(C)C)c2c1C` (stereo not shown) [Compound 4, Methyl 4-(2-(1-dimethylamino)propan-2yloxy)-4-fluorophenylamino)-5-methyl-thieno[2,3-d]pyrimidine-6-carboxylate trifluoroacetate]: the IC50 was 3140 nM.

For `CNC(=O)c1sc2ncnc(Nc3ccc(F)cc3OC(C)CN)c2c1C` (stereo not shown) [Compound 2-4, 4-(2-(1-Amino-propan-2-yloxy)-4-fluorophenylamino)-N-5-methyl-thieno[2,3-d]-pyrimidin-6-carboxamide trifluoroacetate], the IC50 came out at 23 nM.

`Cc1c(C(=O)NCCCN2CCCC2)sc2ncnc(Nc3ccc(F)cc3OC(C)CF)c12` (stereo not shown) [Compound 32-44]: the IC50 was determined as 6 nM.

For `Cc1c(C(=O)NCCCN(C)C)sc2ncnc(Nc3cccnc3OCC3CC3(F)F)c12` (stereo not shown) [Compound 34, 4-(2-((2,2-Difluorocyclopropyl)methoxy)pyridin-3-ylamino)-N-(3-(dimethylamino)propyl)-5-methylthieno[2,3-d]pyrimidine-6-carboxamide hydrochloride], the half-maximal inhibitory concentration (IC50) amounted to 54 nM.

In the case of `Cc1c(C(=O)NCCCN(C)C)sc2ncnc(Nc3ccc(F)cc3OC(CF)CF)c12` [Compound 23-6, 4-(2-(1,3-difluoro-propan-2-yloxy)-4-fluorophenylamino)-N-(3-(dimethylamino)-propyl)-5-methyl-thieno[2,3-d]-pyrimidine-6-carboxamide], the IC50 came to 10 nM.

Take `Cc1c(C(=O)NCCCN2CCCC2)sc2ncnc(Nc3ccc(C#N)cc3OC(CF)CF)c12` [Compound 48, 4-[4-Cyano-2-(2-fluoro-1-fluoromethyl-ethoxy)-phenylamino]-5-methyl-thieno[2,3-d]pyrimidine-6-carboxylic acid (3-pyrrolidin-1-yl-propyl)-amide]: the IC50 was 12 nM.

With `Cc1c(C(N)=O)sc2ncnc(Nc3ccc(F)cc3OC(C)CNC(=O)OC(C)(C)C)c12` (stereo not shown) [Compound 5, tert-Butyl 2-(2-(6-carbamoyl-5-methyl-thieno[2,3-d]pyrimidin-4-ylamino)-5-fluorophenoxy)propylcarbamate], the IC50 was 230 nM.

Turning to `Cc1c(C(=O)NCCO)sc2ncnc(Nc3ccc(F)cc3OC(CO)CO)c12` [Compound 32-29], the IC50 is 170 nM.

As to `Cc1c(C(=O)NCCCN(C)C)sc2ncnc(Nc3ccc(C#N)cc3OC(CF)CF)c12` [Compound 49, 4-(4-Cyano-2-(2-fluoro-1-fluoromethyl-ethoxy)-phenylamino]-5-methyl-thieno[2,3-d]pyrimidine-6-carboxylic acid (3-dimethylamino-propyl)-amide], the IC50 was found to be 8 nM.
